Results as given in PMC6309587 (Anaerobe, 2018).

What was measured:
[1] = system: vanZ1 (CD1240) transcription in 630Δerm; experiment: vanZ1 expression by qRT-PCR during growth in antimicrobials; assay type: cell-based, Clostridioides difficile
C. difficile 630Δerm = experiment: Minimum inhibitory concentration; assay type: cell-based, Clostridioides difficile; settings: with or without LL-37 (Supl. Table 1)

Compound	increase of vanZ1 expression during growth in LL-37 [1]	teicoplanin MIC of 630Δerm whether or not LL-37 was present (C. difficile 630Δerm)
CC[C@H](C)[C@H](NC(=O)[C@H](CCCCN)NC(=O)[C@H](CCC(=O)O)NC(=O)[C@H](CCCCN)NC(=O)[C@H](CO)NC(=O)[C@H](CCCCN)NC(=O)[C@H](CCCNC(=N)N)NC(=O)[C@H](Cc1ccccc1)NC(=O)[C@H](Cc1ccccc1)NC(=O)[C@H](CC(=O)O)NC(=O)CNC(=O)[C@H](CC(C)C)NC(=O)[C@@H](N)CC(C)C)C(=O)NCC(=O)N[C@@H](CCCCN)C(=O)N[C@@H](CCC(=O)O)C(=O)N[C@@H](Cc1ccccc1)C(=O)N[C@@H](CCCCN)C(=O)N[C@@H](CCCNC(=N)N)C(=O)N[C@H](C(=O)N[C@H](C(=O)N[C@@H](CCC(N)=O)C(=O)N[C@@H](CCCNC(=N)N)C(=O)N[C@H](C(=O)N[C@@H](CCCCN)C(=O)N[C@@H](CC(=O)O)C(=O)N[C@@H](Cc1ccccc1)C(=O)N[C@@H](CC(C)C)C(=O)N[C@@H](CCCNC(=N)N)C(=O)N[C@@H](CC(N)=O)C(=O)N[C@@H](CC(C)C)C(=O)N[C@H](C(=O)N1CCC[C@H]1C(=O)N[C@@H](CCCNC(=N)N)C(=O)N[C@H](C(=O)N[C@@H](CCC(=O)O)C(=O)N[C@@H](CO)C(=O)O)[C@@H](C)O)C(C)C)[C@@H](C)CC)C(C)C)[C@@H](C)CC [LL-37]	~ 37 fold	
teicoplanin		remained unchanged
